Assay results published in ChEMBL document CHEMBL4619796, “Discovery of 3-Quinazolin-4(3H)-on-3-yl-2,N-dimethylpropanamides as Orally Active and Selective PI3Kα Inhibitors” (ACS Med Chem Lett, 2020).

Experiments:
[1] = target: Phosphatidylinositol 4,5-bisphosphate 3-kinase catalytic subunit alpha isoform (Homo sapiens, UniProt P42336); assay: Inhibition of PI3Kalpha (unknown origin) using PIP2:3PS peptide as substrate preincubated for 15 mins followed by ATP addition at Km concentration and further incubated for 150 mins by ADP-Glo assay
[2] = species: Homo sapiens; assay: (§1) Selectivity ratio of IC50 for PI3Kgamma (unknown origin) using PIP2:3PS peptide as substrate preincubated for 15 mins followed by ATP addition at Km concentration and further incubated for 120 mins by ADP-Glo assay to IC50 for PI3Kalpha (unknown origin) using PIP2:3PS peptide as substrate preincubated for 15 mins followed by ATP addition at Km concentration and further incubated for 150 mins by ADP-Glo assay
[3] = species: Homo sapiens; assay: as §1, with “PI3Kdelta” for “PI3Kgamma”
[4] = Inhibition of PI3K in human MCF7 cells assessed as reduction in AKT phosphorylation at residue S473 incubated for 2 hrs followed by insulin addition by ELISA; assay type: cell-based; settings: MCF7, 2 h
[5] = species: Homo sapiens; assay: as §1, with “PI3Kbeta” for “PI3Kgamma”
[6] = Cmax in BALB/c mouse at 10 mg/kg, po by HPLC analysis; assay type: ADME, organism-based; parameters: dose 10 mg/kg, route oral; settings: in vivo
[7] = Dose normalized AUC (0 to last) in BALB/c mouse at 10 mg/kg, po by HPLC analysis; assay type: ADME, organism-based; settings: in vivo

Chain of Phosphatidylinositol 4,5-bisphosphate 3-kinase catalytic subunit alpha isoform (P42336 whole entry, canonical isoform): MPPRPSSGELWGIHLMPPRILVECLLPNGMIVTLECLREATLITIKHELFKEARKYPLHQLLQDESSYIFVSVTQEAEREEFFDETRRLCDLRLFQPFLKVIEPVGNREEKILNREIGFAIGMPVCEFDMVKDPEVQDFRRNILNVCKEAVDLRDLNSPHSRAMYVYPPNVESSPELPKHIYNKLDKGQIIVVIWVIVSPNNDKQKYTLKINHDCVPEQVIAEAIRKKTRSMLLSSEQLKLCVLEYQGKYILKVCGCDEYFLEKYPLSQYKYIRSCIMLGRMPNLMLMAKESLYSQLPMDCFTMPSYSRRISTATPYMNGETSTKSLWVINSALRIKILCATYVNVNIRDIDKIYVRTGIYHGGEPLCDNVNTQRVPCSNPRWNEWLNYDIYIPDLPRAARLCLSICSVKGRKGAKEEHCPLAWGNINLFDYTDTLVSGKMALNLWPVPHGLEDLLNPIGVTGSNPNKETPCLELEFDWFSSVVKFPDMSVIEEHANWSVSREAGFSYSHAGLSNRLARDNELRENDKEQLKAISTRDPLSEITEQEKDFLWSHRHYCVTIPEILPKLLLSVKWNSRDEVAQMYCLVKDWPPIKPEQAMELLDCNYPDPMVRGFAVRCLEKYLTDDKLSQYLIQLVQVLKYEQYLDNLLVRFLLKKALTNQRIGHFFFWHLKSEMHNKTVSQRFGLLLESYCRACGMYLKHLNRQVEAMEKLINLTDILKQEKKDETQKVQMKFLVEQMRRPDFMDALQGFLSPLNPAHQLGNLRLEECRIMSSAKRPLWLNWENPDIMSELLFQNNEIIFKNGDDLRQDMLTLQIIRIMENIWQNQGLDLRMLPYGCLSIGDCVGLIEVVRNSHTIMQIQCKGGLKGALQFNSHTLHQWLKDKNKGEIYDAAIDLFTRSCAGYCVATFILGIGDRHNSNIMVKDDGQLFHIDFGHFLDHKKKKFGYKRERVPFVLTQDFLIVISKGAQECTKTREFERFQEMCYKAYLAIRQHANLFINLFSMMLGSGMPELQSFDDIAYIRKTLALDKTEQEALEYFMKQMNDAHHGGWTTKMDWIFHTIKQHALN

Compound | IC50 [1] | Ratio IC50 [2] | Ratio IC50 [3] | IC50 [4] | Ratio IC50 [5] | Cmax [6] | AUClast/dose [7]
CNC(=O)[C@H](C)Cn1cnc2ccc(-c3cnc(CO)c(NS(=O)(=O)c4ccc(F)cc4Cl)c3)cc2c1=O | 30 nM | 12.5 | 17.9 | > 1000 nM | > 334 |  | 
CNC(=O)[C@H](C)Cn1cnc2ccc(-c3cnc(OC)c(NS(=O)(=O)c4c(C)noc4C)c3)cc2c1=O | 4.3 nM | 10 | 4.52 |  | 146 |  | 
CNC(=O)[C@H](C)Cn1cnc2ccc(-c3cnc(OC)c(NS(=O)(=O)c4cccnc4)c3)cc2c1=O |  |  |  | > 1000 nM |  |  | 
COc1ncc(-c2ccc3ncn(C[C@@H](C)C(=O)NC4CCC4)c(=O)c3c2)cc1NS(=O)(=O)c1ccc(F)cc1Cl | 8.4 nM | 3.27 | 2.12 | 80.4 nM | 186 | 4.73 µM | 302 nM·h
CNC(=O)C(C)Cn1cnc2ccc(-c3cnc(C(F)(F)F)c(NS(=O)(=O)c4ccc(F)cc4Cl)c3)cc2c1=O (racemic) | 0.6 nM |  |  | 972 nM | 196 |  | 
CNC(=O)[C@H](C)Cn1cnc2ccc(-c3cnc(C)c(NS(=O)(=O)c4ccc(F)cc4Cl)c3)cc2c1=O | 3 nM | 21 | 17 | 397 nM | 406 |  | 
CNC(=O)[C@H](C)Cn1cnc2ccc(-c3cnc(OC(C)C)c(NS(=O)(=O)c4ccc(F)cc4Cl)c3)cc2c1=O |  |  |  | 387 nM |  |  | 
CNC(=O)[C@H](C)Cn1cnc2ccc(-c3cnc(N(C)C)c(NS(=O)(=O)c4ccc(F)cc4Cl)c3)cc2c1=O | 8.4 nM |  |  |  | 59.5 |  | 
COc1ncc(-c2ccc3ncn(C[C@@H](C)C(=O)NC4COC4)c(=O)c3c2)cc1NS(=O)(=O)c1ccc(F)cc1Cl | 2.1 nM |  |  | 190 nM | 262 |  | 
COc1ncc(-c2ccc3ncn(CCC(N)=O)c(=O)c3c2)cc1NS(=O)(=O)c1ccc(F)cc1Cl | 1.2 nM | 3.94 | 3.34 | 16.8 nM | 59 |  | 
CCc1ncc(-c2ccc3ncn(C[C@@H](C)C(=O)NC)c(=O)c3c2)cc1NS(=O)(=O)c1ccc(F)cc1Cl | 6 nM | 14.4 | 13.8 | 347 nM | 309 |  | 
CNC(=O)[C@H](C)Cn1cnc2ccc(-c3cnc(OC)c(NS(=O)(=O)c4sc(C)nc4C)c3)cc2c1=O | 0.5 nM | 11.7 | 2.08 | 10.9 nM | 115 |  | 
COc1ncc(-c2ccc3ncn(C[C@@H](C)C(=O)NCCF)c(=O)c3c2)cc1NS(=O)(=O)c1ccc(F)cc1Cl | 2.5 nM | 7.41 | 7.61 | 67.4 nM | 162 |  | 
COc1ncc(-c2ccc3ncn(C[C@@H](C)C(=O)NC4CC4)c(=O)c3c2)cc1NS(=O)(=O)c1ccc(F)cc1Cl | 2.7 nM | 5.44 | 2.61 | 170 nM | 224 |  | 
CNC(=O)[C@H](C)Cn1cnc2ccc(-c3cnc(N)c(NS(=O)(=O)c4ccc(F)cc4Cl)c3)cc2c1=O | 19.3 nM |  |  | > 1000 nM | 283 |  | 
CNC(=O)[C@H](C)Cn1cnc2ccc(-c3cnc(OC)c(NS(=O)(=O)c4ccc(Cl)c(Cl)c4)c3)cc2c1=O | 10 nM |  |  |  | 6.62 |  | 
COc1ncc(-c2ccc3ncn(C[C@@H](C)C(=O)NCC(F)(F)F)c(=O)c3c2)cc1NS(=O)(=O)c1ccc(F)cc1Cl | 5.5 nM | 9.87 | 3.41 | 56.1 nM | 107 |  | 
COc1ncc(-c2ccc3ncn(C[C@@H](C)C(=O)NCC(C)C)c(=O)c3c2)cc1NS(=O)(=O)c1ccc(F)cc1Cl | 8 nM | 6.38 | 3.03 | 81.1 nM | 424 |  | 
COc1ncc(-c2ccc3ncc(NC(=O)N4CCC[C@H]4C(N)=O)c(=O)n3c2)cc1NS(=O)(=O)c1ccc(F)cc1Cl | 0.5 nM | 7.4 | 3.4 | 188 nM | 130 |  | 
CNC(=O)[C@H](C)Cn1cnc2ccc(-c3cnc(OC)c(NS(=O)(=O)c4sccc4C)c3)cc2c1=O | 4.1 nM |  |  |  | 43.1 |  | 
COc1ncc(-c2ccc3ncn(CC(C(N)=O)C(C)C)c(=O)c3c2)cc1NS(=O)(=O)c1ccc(F)cc1Cl (racemic) |  |  |  | 125 nM | 32.6 |  | 

Compound | IC50 [1] | Ratio IC50 [2] | Ratio IC50 [3] | IC50 [4] | Ratio IC50 [5] | Cmax [6] | AUClast/dose [7]
COc1ncc(-c2ccc3ncn(CC(F)(F)C(N)=O)c(=O)c3c2)cc1NS(=O)(=O)c1ccc(F)cc1Cl | 2.7 nM | 3.15 | 2.69 |  | 46.6 |  | 
COc1ncc(-c2ccc3ncn(C[C@@H](C)C(=O)NC(C)C)c(=O)c3c2)cc1NS(=O)(=O)c1ccc(F)cc1Cl | 6.9 nM | 9.87 | 3.41 | 61.5 nM | 107 |  | 
CCC(CC)NC(=O)[C@H](C)Cn1cnc2ccc(-c3cnc(OC)c(NS(=O)(=O)c4ccc(F)cc4Cl)c3)cc2c1=O | 19.6 nM | 7.92 | 3.11 | 373 nM | 259 |  | 
CNC(=O)[C@H](C)Cn1cnc2ccc(-c3cnc(COC)c(NS(=O)(=O)c4ccc(F)cc4Cl)c3)cc2c1=O | > 1000 nM |  |  | > 1000 nM |  |  | 
COc1ncc(-c2ccc3ncn(CC4(C(N)=O)CC4)c(=O)c3c2)cc1NS(=O)(=O)c1ccc(F)cc1Cl |  | 3.61 | 0.35 | 39.9 nM | 14.4 |  | 
CNC(=O)[C@H](C)Cn1cnc2ccc(-c3cnc(OC)c(NS(=O)(=O)c4ccc(F)cc4)c3)cc2c1=O | 3.4 nM | 12.3 | 9.16 | 19 nM | 106 | 5 µM | 1370 nM·h
CCNC(=O)[C@H](C)Cn1cnc2ccc(-c3cnc(OC)c(NS(=O)(=O)c4ccc(F)cc4Cl)c3)cc2c1=O | 3.5 nM | 6.28 | 5.63 | 40.5 nM | 187 |  | 
COc1ncc(-c2ccc3ncn(CC(N)C(N)=O)c(=O)c3c2)cc1NS(=O)(=O)c1ccc(F)cc1Cl (racemic) |  | 7.39 | 4.75 | 134 nM | 33.9 |  | 
COc1ncc(-c2ccc3ncn(C[C@@H](C)C(=O)N4CCOCC4)c(=O)c3c2)cc1NS(=O)(=O)c1ccc(F)cc1Cl | 11.5 nM | 0.71 | 0.38 |  | 18.3 |  | 
CNC(=O)[C@H](C)Cn1cnc2ccc(-c3cnc(OC)c(NS(=O)(=O)c4cc(C(F)(F)F)cc(C(F)(F)F)c4)c3)cc2c1=O | 20.8 nM | 17.3 | 19.4 |  | 109 |  | 
CCC(Cn1cnc2ccc(-c3cnc(OC)c(NS(=O)(=O)c4ccc(F)cc4Cl)c3)cc2c1=O)C(N)=O (racemic) |  |  |  | 52.3 nM | 19.3 |  | 
CNC(=O)[C@H](C)Cn1cnc2ccc(-c3cnc(OC4CC4)c(NS(=O)(=O)c4ccc(F)cc4Cl)c3)cc2c1=O |  |  |  | 55.3 nM |  |  | 
COc1ncc(-c2ccc3ncn(C[C@@H](C)C(=O)NC4CC4(F)F)c(=O)c3c2)cc1NS(=O)(=O)c1ccc(F)cc1Cl (some centres undefined) | 6.2 nM |  |  |  | 116 |  | 
CNC(=O)C(C)Cn1cnc2ccc(-c3cnc(OC(F)(F)F)c(NS(=O)(=O)c4ccc(F)cc4Cl)c3)cc2c1=O (racemic) |  |  |  | > 1000 nM | 94.9 |  | 
COCCNC(=O)[C@H](C)Cn1cnc2ccc(-c3cnc(OC)c(NS(=O)(=O)c4ccc(F)cc4Cl)c3)cc2c1=O | 4.9 nM | 9.22 | 6.06 | 72 nM | 229 | 9.13 µM | 723 nM.hr/(mg/kg)
COc1ncc(-c2ccc3ncn(C[C@@H](C)C(=O)N(C)C(C)C)c(=O)c3c2)cc1NS(=O)(=O)c1ccc(F)cc1Cl | 19.6 nM | 1.06 | 0.78 |  | 16.6 |  | 
COc1ncc(-c2ccc3ncn(CCCC(N)=O)c(=O)c3c2)cc1NS(=O)(=O)c1ccc(F)cc1Cl | 1.1 nM |  | 1.91 | 9.43 nM | 30 |  | 
CCN(CC)C(=O)[C@H](C)Cn1cnc2ccc(-c3cnc(OC)c(NS(=O)(=O)c4ccc(F)cc4Cl)c3)cc2c1=O | 25.8 nM | 1.04 | 0.63 |  | 5.97 |  | 
CCOc1ncc(-c2ccc3ncn(C[C@@H](C)C(=O)NC)c(=O)c3c2)cc1NS(=O)(=O)c1ccc(F)cc1Cl | 13.7 nM |  |  | 116 nM | 153 |  | 
COc1ncc(-c2ccc3ncn(C[C@@H](C)C(=O)NCCO)c(=O)c3c2)cc1NS(=O)(=O)c1ccc(F)cc1Cl | 1.7 nM | 6.34 | 6.8 | 339 nM | 151 |  | 
CNC(=O)[C@@H](C)Cn1cnc2ccc(-c3cnc(OC)c(NS(=O)(=O)c4ccc(F)cc4Cl)c3)cc2c1=O | 2.3 nM |  |  |  |  |  | 
